Key:
[1] = Selectivity ratio of IC50 for BACE2 to IC50 for BACE1
[2] = biological target: T1, Beta-secretase 2 (Homo sapiens, UniProt Q9Y5Z0); assay: Inhibition of BACE2 by FRET assay
T1 sequence (Q9Y5Z0 whole entry): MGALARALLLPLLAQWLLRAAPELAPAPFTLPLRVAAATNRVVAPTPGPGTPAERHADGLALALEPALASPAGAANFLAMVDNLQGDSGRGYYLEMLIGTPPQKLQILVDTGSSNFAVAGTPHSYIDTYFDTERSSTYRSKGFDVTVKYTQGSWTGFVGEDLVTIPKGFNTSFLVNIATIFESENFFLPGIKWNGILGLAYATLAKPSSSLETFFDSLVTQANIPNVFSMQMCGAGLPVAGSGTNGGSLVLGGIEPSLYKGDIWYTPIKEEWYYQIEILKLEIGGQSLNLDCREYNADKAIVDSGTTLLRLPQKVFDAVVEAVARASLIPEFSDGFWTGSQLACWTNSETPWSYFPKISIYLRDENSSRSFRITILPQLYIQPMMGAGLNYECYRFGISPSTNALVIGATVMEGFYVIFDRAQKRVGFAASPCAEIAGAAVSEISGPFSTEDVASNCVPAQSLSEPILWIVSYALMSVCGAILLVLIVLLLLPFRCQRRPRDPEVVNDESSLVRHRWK

[3] = biological target: Cathepsin D (Homo sapiens, UniProt P07339); assay: Inhibition of cathepsin D by FRET assay
[4] = biological target: Beta-secretase 1 (Homo sapiens, UniProt P56817); assay: Inhibition of BACE1 by FRET assay
Chain of Beta-secretase 1 (P56817 whole entry): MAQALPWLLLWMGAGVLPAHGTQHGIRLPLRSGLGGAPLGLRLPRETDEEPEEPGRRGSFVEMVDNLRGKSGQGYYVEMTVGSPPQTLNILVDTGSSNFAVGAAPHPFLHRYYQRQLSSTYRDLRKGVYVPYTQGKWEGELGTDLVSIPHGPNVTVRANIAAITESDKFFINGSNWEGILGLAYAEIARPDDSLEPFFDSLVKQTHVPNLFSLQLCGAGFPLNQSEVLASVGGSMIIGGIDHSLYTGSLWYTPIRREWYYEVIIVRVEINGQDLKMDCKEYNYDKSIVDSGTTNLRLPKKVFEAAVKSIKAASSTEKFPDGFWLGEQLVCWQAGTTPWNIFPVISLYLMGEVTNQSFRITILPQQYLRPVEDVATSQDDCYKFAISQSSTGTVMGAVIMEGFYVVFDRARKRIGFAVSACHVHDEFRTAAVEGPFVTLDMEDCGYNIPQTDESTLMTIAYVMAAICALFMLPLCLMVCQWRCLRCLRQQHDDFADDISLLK

Chain of Cathepsin D (P07339 65-162 limits assumed): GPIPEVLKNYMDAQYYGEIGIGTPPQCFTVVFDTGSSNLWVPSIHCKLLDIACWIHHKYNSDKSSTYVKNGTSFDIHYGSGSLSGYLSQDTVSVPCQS
Chain of Cathepsin D (P07339 169-412 limits assumed): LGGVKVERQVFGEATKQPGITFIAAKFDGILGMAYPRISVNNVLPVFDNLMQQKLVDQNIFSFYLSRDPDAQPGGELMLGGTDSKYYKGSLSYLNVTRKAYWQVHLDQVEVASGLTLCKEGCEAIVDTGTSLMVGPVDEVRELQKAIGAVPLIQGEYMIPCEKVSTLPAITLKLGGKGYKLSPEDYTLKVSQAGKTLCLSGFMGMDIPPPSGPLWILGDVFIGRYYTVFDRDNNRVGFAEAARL

Structure (SMILES) | Ratio IC50 [1] | IC50 [2] [nM] | IC50 [3] [nM] | IC50 [4] [nM]
CN1C(=O)C(c2ccncc2)(c2cccc(-c3ccccc3)c2)N=C1N (configuration not stated) | 1.1 |  |  | 
CN1C(=O)C(c2ccncc2)(c2cccc(-c3cc(F)ccc3F)c2)N=C1N (racemic) |  | 120 | 9400 | 
CN1C(=O)C(c2ccccc2)(c2ccncc2)N=C1N (configuration not stated) | 0.8 |  |  | 
CN1C(=O)C(c2ccncc2)(c2cccc(-c3cccnc3F)c2)N=C1N (configuration not stated) | 33 | 1000 | 17400 | 30
CN1C(=O)C(c2ccncc2)(c2cccc(-c3cccc(C#N)c3)c2)N=C1N (configuration not stated) | 1 | 40 | 24200 | 40
CN1C(=O)C(c2ccncc2)(c2cccc(-c3cccnc3)c2)N=C1N (configuration not stated) | 8 |  |  | 
CN1C(=O)C(c2ccncc2)(c2cccc(-c3cnccn3)c2)N=C1N (configuration not stated) |  | 1010 |  | 
CN1C(=O)C(c2ccncc2)(c2cccc(-c3ccoc3)c2)N=C1N (configuration not stated) |  | 570 | 46800 | 
CN1C(=O)C(c2ccncc2)(c2cccc(-c3cccc(F)c3F)c2)N=C1N (configuration not stated) | 3.3 | 130 | 13100 | 40
CN1C(=O)C(c2ccncc2)(c2cccc(-c3ccsc3)c2)N=C1N (configuration not stated) |  | 190 | 31600 | 

Now from value to compound:

Ratio IC50 [1] | IC50 [2] [nM] | IC50 [3] [nM] | IC50 [4] [nM] | Structure (SMILES)
 | 100 | 5500 |  | CN1C(=O)[C@@](c2ccncc2)(c2cccc(-c3cc(F)ccc3F)c2)N=C1N
0.7 | 20 | 12200 | 30 | COc1cccc(-c2cccc(C3(c4ccncc4)N=C(N)N(C)C3=O)c2)c1 (configuration not stated)
1.6 | 80 | 20800 | 50 | CN1C(=O)C(c2ccncc2)(c2cccc(-c3cccc(F)c3)c2)N=C1N (configuration not stated)
1 | 60 | 34100 | 60 | CN1C(=O)C(c2ccncc2)(c2cccc(-c3cc(F)cc(F)c3)c2)N=C1N (configuration not stated)
0.6 | 140 | 14100 | 250 | CN1C(=O)C(c2ccncc2)(c2cccc(-c3cccc(OC(F)(F)F)c3)c2)N=C1N (configuration not stated)
 | 700 | 26400 |  | CN1C(=O)[C@](c2ccncc2)(c2cccc(-c3cc(F)ccc3F)c2)N=C1N
